Entries after “also recorded” stand apart in the source; their conditions may differ. Peptide text beside a SMILES is read from it.

This assay relates to persistent sodium current (I NaP) from MSNs in the nucleus accumbens. Kind of assay: Brain slice voltage-clamp: persistent Na^+ current (I NaP) in MSNs. Format: cell-based, male C57BL6/J mice. How it is done:
Brain slices from male C57BL6/J mice aged 28–45 days were prepared to contain the nucleus accumbens (NAc). Mice were anesthetized with Isoflurane (Baxter, Deerfield, IL) and brains extracted following decapitation. Brains were sliced with a vibratome (Leica Microsystems, Wetzlar, Germany) to achieve 300 μm coronal slices. Brains sliced in extracellular salts; consisting of the following (mM): Tris‐HCl 72, Tris‐Base18, NaH2PO4 1.2, KCl 2.5, HEPES 20, sucrose 20, NaHCO3 25, glucose 25, MgSO4 10, Na‐pyruvate 3, Na‐ascorbate 5 and CaCl2 0.5 (Sigma‐Aldrich, St. Louis, MO); 300–310 mOsm, pH 7.4 and was continuously oxygenated (mixture of 95%/5% O2/CO2). […] Evoked action potentials with a range of current injections from 10 pA to 220 pA with 800 ms every 10 pA were measured and number of action potentials, instantaneous frequency, and other electrical parameters were determined. […] The voltage‐dependence of I NaP was determined using standard protocols (Yue, Remy, Su, Beck, & Yaari, 2005). […] Membrane capacitance was calculated using the equation: capacitance = membrane time constant/input resistance (Meitzen, Weaver, Brenowitz, & Perkel, 2009). The membrane input resistance was measured by a series of 600 ms hyperpolarizing current steps from −50 to 0 pA, step 10 pA with 1 s interval. […]

As to `CC(=O)N[C@@H](Cc1ccccc1)C(=O)N[C@@H](CC(C)C)C(=O)N1CCC[C@H]1C(=O)N[C@@H](CCCCN)C(N)=O` [FLPK] (Ac-FLPK-NH2), the “effect on I NaP” value (50 µM FLPK vs 0.1% DMSO) was “increase in persistent sodium current; also recorded: potentiated persistent Na^+ currents”. Moreover, the “persistent sodium current (I NaP)” value (50 µM FLPK, slow voltage ramps (50 mV/s), TTX-subtracted, control 111.4 ± 15.7 pA, p < .03, n = 14) was −158.2 ± 14.2 pA.

Source of the values: article PMC7363588, “Mapping of the FGF14:Nav1.6 complex interface reveals FLPK as a functionally active peptide modulating excitability” (Physiological Reports, 2020).
